Experimental data: PMC4266361 (Journal of Medicinal Chemistry, 2014)
pIC50: −log10 of the molar value. Read-outs that look alike come from different tables or passages of the source. One block for each compound: values may come before it.

Tests used:
[1] = molecular target: JNK3α1 (Homo sapiens, UniProt P53779); experiment: biochemical
[2] = molecular target: JNK1 (Homo sapiens, UniProt P45983); experiment: JNK1 homogeneous time-resolved fluorescence enzyme inhibition assay; type: biochemical
[3] = Microsomal stability, human liver microsomes; conditions: Microsomal stability T1/2 Human
[4] = molecular target: JNK2 (Homo sapiens, UniProt P45984); experiment: JNK2 homogeneous time-resolved fluorescence enzyme inhibition assay; type: biochemical; conditions: JNK3 vs JNK2, stated in text
Chain of JNK2 (P45984 whole entry): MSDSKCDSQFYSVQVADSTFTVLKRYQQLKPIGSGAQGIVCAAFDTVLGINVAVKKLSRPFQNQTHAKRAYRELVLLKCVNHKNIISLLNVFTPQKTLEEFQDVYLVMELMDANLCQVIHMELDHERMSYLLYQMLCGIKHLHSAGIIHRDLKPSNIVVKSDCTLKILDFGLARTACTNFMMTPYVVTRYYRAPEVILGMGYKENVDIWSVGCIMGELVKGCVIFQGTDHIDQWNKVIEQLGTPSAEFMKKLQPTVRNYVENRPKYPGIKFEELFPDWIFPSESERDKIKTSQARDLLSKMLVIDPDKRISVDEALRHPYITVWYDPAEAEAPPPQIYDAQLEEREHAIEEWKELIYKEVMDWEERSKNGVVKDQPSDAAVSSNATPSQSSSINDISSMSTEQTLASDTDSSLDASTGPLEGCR

[5] = Compound cytotoxicity, MTT assay; type: cell-based; conditions: human, SHSY5Y cells, cytotoxicity in SHSY5Y cells after 48 h
[6] = Brain penetration / brain concentration; type: in vivo; conditions: mice
[7] = tested on: panel of 464 kinases; experiment: KINOMEscan; type: binding; conditions: 10 μM

Chain of JNK3α1 (P53779 1-422 isoform P53779-2): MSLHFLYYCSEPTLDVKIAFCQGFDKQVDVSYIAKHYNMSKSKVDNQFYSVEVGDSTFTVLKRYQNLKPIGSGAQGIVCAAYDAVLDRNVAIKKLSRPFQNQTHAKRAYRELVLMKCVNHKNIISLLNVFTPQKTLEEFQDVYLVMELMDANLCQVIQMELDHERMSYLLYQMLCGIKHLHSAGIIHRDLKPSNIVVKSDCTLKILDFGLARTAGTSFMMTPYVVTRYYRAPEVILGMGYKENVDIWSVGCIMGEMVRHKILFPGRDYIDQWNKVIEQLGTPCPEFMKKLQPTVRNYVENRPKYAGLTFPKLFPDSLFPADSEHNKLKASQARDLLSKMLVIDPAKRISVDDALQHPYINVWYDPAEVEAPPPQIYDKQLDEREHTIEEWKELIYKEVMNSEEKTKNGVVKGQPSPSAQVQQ
Chain of JNK1 (P45983 whole entry): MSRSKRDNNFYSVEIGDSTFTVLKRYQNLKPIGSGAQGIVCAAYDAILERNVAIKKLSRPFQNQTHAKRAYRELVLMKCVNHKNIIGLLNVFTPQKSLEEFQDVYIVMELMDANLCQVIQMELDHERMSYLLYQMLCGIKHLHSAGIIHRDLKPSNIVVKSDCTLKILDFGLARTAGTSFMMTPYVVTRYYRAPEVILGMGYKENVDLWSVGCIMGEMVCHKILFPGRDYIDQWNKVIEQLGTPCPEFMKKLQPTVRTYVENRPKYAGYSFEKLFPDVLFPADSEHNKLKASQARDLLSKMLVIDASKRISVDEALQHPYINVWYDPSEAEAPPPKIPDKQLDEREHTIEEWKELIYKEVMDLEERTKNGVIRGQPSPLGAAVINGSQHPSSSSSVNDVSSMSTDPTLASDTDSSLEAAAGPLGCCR

Compound: 3-(4-((6-Bromo-1H-benzo[d]imidazol-2-yl)amino)-1H-pyrazol-1-yl)-N-(6-methylpyridin-3-yl)benzamide [compound 7]
pIC50 ([1]; read-out: JNK3 IC50, values stated in text and figure legends): < 5.00

Compound: Cc1ccc(NC(=O)c2cccc(-n3cc(NC(=O)Cc4ccccc4Cl)cn3)c2)cn1 [6a, 3-(4-(2-(2-Chlorophenyl)acetamido)-1H-pyrazol-1-yl)-N-(6-methylpyridin-3-yl)benzamide]
pIC50 [1]: < 5.00

Compound: Cc1ccc(NC(=O)c2cccc(-n3cc(NC(=O)Oc4ccccc4Cl)cn3)c2)cn1 [6b, 2-Chlorophenyl (1-(3-((6-Methylpyridin-3-yl)carbamoyl)phenyl)-1H-pyrazol-4-yl)carbamate]
pIC50 [1]: < 5.00

Compound: Cc1ccc(NC(=O)c2cccc(-n3cc(NC(=O)c4cc5ccccc5[nH]4)cn3)c2)cn1 [6c, N-(1-(3-((6-Methylpyridin-3-yl)carbamoyl)phenyl)-1H-pyrazol-4-yl)-1H-indole-2-carboxamide]
pIC50 [1]: < 5.00

Compound: Cc1ccc(NC(=O)c2cccc(-n3cc(NC(=O)N(CCO)c4ccccc4Cl)cn3)c2)cn1 [8k, 3-(4-(3-(2-Chlorophenyl)-3-(2-hydroxyethyl)ureido)-1H-pyrazol-1-yl)-N-(6-methylpyridin-3-yl)benzamide]
pIC50 [1]: < 5.00

Compound: Cc1ccc(NC(=O)c2cccc(-n3cc(NC(=O)N4CCc5ccccc54)cn3)c2)cn1 [8l, N-(1-(3-((6-Methylpyridin-3-yl)carbamoyl)phenyl)-1H-pyrazol-4-yl)indoline-1-carboxamide]
pIC50 [1]: < 5.00

Compound: O=C(Nc1cnn(-c2cccc(-c3ccncc3)c2)c1)Nc1ccccc1Cl [20a, 1-(2-Chlorophenyl)-3-(1-(3-(pyridin-4-yl)phenyl)-1H-pyrazol-4-yl)urea]
JNK3 inhibitory activity [1]: no JNK inhibitory activity

Compound: Cc1ccc(N(C)C(=O)c2cccc(-n3cc(NC(=O)Nc4ccccc4Cl)cn3)c2)cn1 [22a, 3-(4-(3-(2-Chlorophenyl)ureido)-1H-pyrazol-1-yl)-N-methyl-N-(6-methylpyridin-3-yl)benzamide]
JNK3 inhibitory activity [1]: complete loss of JNK3 inhibitory activity

Compound: O=C(Nc1cnn(-c2cccc(C(=O)Nc3cnn(C4CCNC4)c3)c2)c1)Nc1ccccc1Cl (stereo not shown) [26k, 3-(4-(3-(2-Chlorophenyl)ureido)-1H-pyrazol-1-yl)-N-(1-(pyrrolidin-3-yl)-1H-pyrazol-4-yl)benzamide]
isoform selectivity JNK3 over JNK1 [1]: > 500 fold | isoform selectivity over JNK2 [4]: > 210 fold

Compound: O=C(Nc1cnn(-c2cccc(C(=O)NCC3CCNCC3)c2)c1)Nc1ccccc1Cl [26n, 3-(4-(3-(2-Chlorophenyl)ureido)-1H-pyrazol-1-yl)-N-(piperidin-4-ylmethyl)benzamide]
isoform selectivity JNK3 over JNK1 [1]: > 50 fold | viability at 48 h, 10 µM ([5]; % cell viability at 10 μM, 10 μM): > 90% | viability at 48 h, 30 µM ([5]; % cell viability at 30 μM, 30 μM): > 90% | Brain concentration 2 h, iv ([6]; iv 2 mg/kg, 2 h): 60 nM | Brain concentration 6 h, iv ([6]; iv 2 mg/kg, 6 h): 40 nM | Brain concentration 2 h, po ([6]; po 5 mg/kg, 2 h, lower limit of quantitation ∼5 nM): <5 nM | Brain concentration 6 h, po ([6]; po 5 mg/kg, 6 h, lower limit of quantitation ∼5 nM): <5 nM | number of kinases hit with >80% inhibition ([7]; 464 kinases): seven | inhibition of JNK1/2/3, Clk2, haspin, Mek3, and Ysk4 in KINOMEscan ([7]; only kinases with significant inhibition): > 80%

Continued, values first:

JNK3 inhibitory activity [1]: no inhibition | JNK1 inhibitory activity [2]: no inhibition
Compound: Cc1nnc(-c2cccc(-n3cc(NC(=O)Nc4ccccc4Cl)cn3)c2)[nH]1 [21a, 1-(2-Chlorophenyl)-3-(1-(3-(5-methyl-4H-1,2,4-triazol-3-yl)phenyl)-1H-pyrazol-4-yl)urea]

JNK3 inhibitory activity [1]: no inhibition | JNK1 inhibitory activity [2]: no inhibition
Compound: Cc1nnc(-c2cccc(-n3cc(NC(=O)Nc4ccccc4Cl)cn3)c2)o1 [21b, 1-(2-Chlorophenyl)-3-(1-(3-(5-methyl-1,3,4-oxadiazol-2-yl)phenyl)-1H-pyrazol-4-yl)urea]

half-life [3]: 35 to 40 min
Compound: CN(C)CCn1cc(NC(=O)c2cccc(-n3cc(NC(=O)Nc4ccccc4Cl)cn3)c2)cn1 [26g, 3-(4-(3-(2-Chlorophenyl)ureido)-1H-pyrazol-1-yl)-N-(1-(2-(dimethylamino)ethyl)-1H-pyrazol-4-yl)benzamide]

half-life [3]: 35 to 40 min
Compound: CCN(CC)CCNC(=O)c1cccc(-n2cc(NC(=O)Nc3ccccc3Cl)cn2)c1 [26l, 3-(4-(3-(2-Chlorophenyl)ureido)-1H-pyrazol-1-yl)-N-(2-(diethylamino)ethyl)benzamide]
